Data published in ChEMBL document CHEMBL4739714, “Inhibitors of cyclin-dependent kinase 12 (cdk12) and uses thereof” (2020).
The source made the active and inactive calls. The calls are words filed in the database; no cut-off is given here.

Columns and labels:
Assay type in all cases: cell-based
[1] = target: Cyclin-dependent kinase 12 (Homo sapiens) (UniProt Q9NYV4); assay: Inhibition of biotinylated-THZ1 binding to CDK12 in human Jurkat cells assessed as reduction in cyclin K pull down at 1 uM preincubated for 6 hrs followed by biotinylated-THZ1 addition by Western blotting based pull-down assay
[2] = target: Cyclin-dependent kinase 12/13 (Homo sapiens) (UniProt Q14004+Q9NYV4); assay: Inhibition of biotinylated-THZ1 binding to CDK12/CDK13 in human Jurkat cells assessed as reduction in cyclin K pull down at 1 uM preincubated for 6 hrs followed by biotinylated-THZ1 addition by Western blotting based pull-down assay
[3] = target: Cyclin-dependent kinase 7 (Homo sapiens) (UniProt P50613); assay: Inhibition of biotinylated-THZ1 binding to CDK7 in human Jurkat cells assessed as reduction in cyclin H pull down at 1 uM preincubated for 6 hrs followed by biotinylated-THZ1 addition by Western blotting based pull-down assay
Chain of Cyclin-dependent kinase 7 (Homo sapiens) (P50613 whole entry): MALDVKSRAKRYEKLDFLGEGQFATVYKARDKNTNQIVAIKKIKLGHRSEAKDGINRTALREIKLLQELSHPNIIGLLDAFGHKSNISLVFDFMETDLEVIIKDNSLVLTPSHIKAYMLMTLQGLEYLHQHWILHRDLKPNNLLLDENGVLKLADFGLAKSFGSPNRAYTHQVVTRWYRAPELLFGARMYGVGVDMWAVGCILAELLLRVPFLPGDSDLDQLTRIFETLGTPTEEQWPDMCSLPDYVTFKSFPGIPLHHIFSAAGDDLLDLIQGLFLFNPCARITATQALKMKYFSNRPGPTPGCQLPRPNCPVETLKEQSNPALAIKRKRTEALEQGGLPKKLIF

Chain of Cyclin-dependent kinase 12 (Homo sapiens) (Q9NYV4 whole entry, looked up): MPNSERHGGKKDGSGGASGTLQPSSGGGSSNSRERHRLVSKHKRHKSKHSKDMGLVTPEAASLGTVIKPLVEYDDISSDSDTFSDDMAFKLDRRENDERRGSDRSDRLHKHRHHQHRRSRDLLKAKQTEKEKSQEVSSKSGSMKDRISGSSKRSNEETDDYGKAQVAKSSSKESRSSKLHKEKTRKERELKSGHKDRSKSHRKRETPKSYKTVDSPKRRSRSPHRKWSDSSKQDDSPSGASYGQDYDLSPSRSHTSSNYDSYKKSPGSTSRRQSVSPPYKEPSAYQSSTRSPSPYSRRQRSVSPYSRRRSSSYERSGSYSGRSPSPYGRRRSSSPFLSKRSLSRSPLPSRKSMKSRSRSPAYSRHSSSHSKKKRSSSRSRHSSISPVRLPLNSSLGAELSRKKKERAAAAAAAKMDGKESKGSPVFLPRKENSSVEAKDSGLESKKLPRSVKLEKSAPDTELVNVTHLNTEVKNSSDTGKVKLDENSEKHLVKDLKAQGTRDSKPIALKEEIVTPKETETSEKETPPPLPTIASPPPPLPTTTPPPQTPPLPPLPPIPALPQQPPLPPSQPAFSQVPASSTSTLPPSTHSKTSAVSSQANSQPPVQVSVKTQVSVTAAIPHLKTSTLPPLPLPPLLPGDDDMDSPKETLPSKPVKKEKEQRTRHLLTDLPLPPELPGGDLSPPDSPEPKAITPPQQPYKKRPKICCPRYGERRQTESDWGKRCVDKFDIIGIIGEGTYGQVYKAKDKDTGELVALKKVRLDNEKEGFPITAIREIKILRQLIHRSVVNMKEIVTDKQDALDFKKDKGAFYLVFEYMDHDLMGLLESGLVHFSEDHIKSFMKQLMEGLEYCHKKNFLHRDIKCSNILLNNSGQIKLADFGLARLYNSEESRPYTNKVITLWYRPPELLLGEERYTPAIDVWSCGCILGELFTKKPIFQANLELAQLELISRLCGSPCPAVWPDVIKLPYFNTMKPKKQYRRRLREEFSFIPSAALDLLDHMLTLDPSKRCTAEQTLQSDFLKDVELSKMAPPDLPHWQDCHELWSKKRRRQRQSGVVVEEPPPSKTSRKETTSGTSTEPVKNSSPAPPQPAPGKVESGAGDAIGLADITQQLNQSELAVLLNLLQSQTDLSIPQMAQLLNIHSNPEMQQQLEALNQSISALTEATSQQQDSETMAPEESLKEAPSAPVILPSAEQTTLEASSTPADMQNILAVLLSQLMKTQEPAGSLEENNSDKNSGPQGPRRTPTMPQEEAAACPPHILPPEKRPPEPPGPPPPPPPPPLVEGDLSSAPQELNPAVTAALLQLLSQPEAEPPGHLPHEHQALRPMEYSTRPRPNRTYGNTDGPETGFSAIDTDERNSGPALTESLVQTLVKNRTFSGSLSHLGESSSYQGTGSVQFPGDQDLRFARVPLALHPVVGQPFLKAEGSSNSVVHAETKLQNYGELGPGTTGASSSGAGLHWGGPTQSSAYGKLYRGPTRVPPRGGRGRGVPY

| Structure (SMILES) | inhibition [1] | inhibition [2] | inhibition [3] |
| --- | --- | --- | --- |
| C=CC(=O)Nc1ccc(N2CCC[C@@H](Nc3ncc(Cl)c(-c4c[nH]c5ccccc45)n3)C2)nc1 | inactive | – | – |
| CN(C)C/C=C/C(=O)Nc1ccc(C(=O)Nc2cccc(Nc3ncc(Cl)c(-c4c[nH]c5ccccc45)n3)c2)cc1 | – | Active | Active |
| CN(C)C/C=C/C(=O)Nc1ccc(N2CCC[C@@H](Nc3ncc(Cl)c(-c4c[nH]c5ccccc45)n3)C2)nc1 | inactive | – | inactive |
| C=CC(=O)Nc1ccc(N2CCC[C@@H](Nc3ncc(Cl)c(-c4c[nH]c5ccccc45)n3)C2)cc1 | inactive | – | inactive |
| CN(C)C/C=C/C(=O)Nc1ccc(O[C@@H]2CCC[C@@H](Nc3ncc(Cl)c(-c4c[nH]c5ccccc45)n3)C2)cc1 | inactive | Active | inactive |
| CN(C)C/C=C/C(=O)Nc1ccc(C(=O)N2CCC[C@@H](Nc3ncc(Cl)c(-c4c[nH]c5ccccc45)n3)C2)nc1 | inactive | – | – |
| C=CC(=O)Nc1ccc(O[C@@H]2CCC[C@@H](Nc3ncc(Cl)c(-c4c[nH]c5ccccc45)n3)C2)cc1 | inactive | – | – |
